Results from patent US20080194636A1, “Enzyme Inhibitors and Uses Thereof” (Howard Florey Institute Of Experimental Physiology And …, priority 2004, published 2008).

Experiments:
[1] = target: T1, insulin-regulated aminopeptidase (IRAP) (Homo sapiens, UniProt Q9UIQ6); assay: In vitro enzymatic assay for inhibitors of IRAP (hydrolysis of Leu-MCA, fluorescence); format: biochemical; conditions: recombinant full length human IRAP from transfected HEK293 cells; substrate Leu-MCA
T1 construct: containing the cDNA encoding the full length human RAP were utilised; made in house; host or cells: HEK293 cells transfected with pcDNA-3
Procedure: An in vitro enzymatic assay was used for screening for compounds which inhibit IRAP activity. The assay used an aminopeptidase substrate (leucine 4-methylcoumaryl-7-amide), a source of IRAP-containing material, and a candidate inhibitor.
IRAP-containing material was incubated with a synthetic aminopeptidase substrate, such as Leu-MCA (leucine 4-methylcoumaryl-7-amide), and a test substance. Inhibition of the rate of degradation of the synthetic substrate was taken as a measure of the inhibitory effect of the test substance.
As a source of recombinant IRAP, HEK293 cells transfected with a eukaryotic expression vector pcDNA-3 containing the cDNA encoding the full length human RAP were utilised. The assay system involved the measurement of the rate of hydrolysis of Leu-MCA by RAP. […] Candidate test compounds were added to the assay system, and their effects on the hydrolysis of Leu-MCA were taken to be direct indicators of their ability to inhibit IRAP activity.

3T3-L1 cells = conditions: 0.1 and 1 uM; basal and insulin (0.7 nM) stimulated; cited from earlier work
[2] = tested on: scopolamine-induced memory deficit; assay: Scopolamine-induced memory deficit model, inhibitory avoidance paradigm; format: in vivo, rat; conditions: rats, following scopolamine, retrieval trial 24 h later, vs scopolamine followed by vehicle
Procedure: The effect of IRAP inhibitor Compound 1 on scopolamine-induced amnesia was tested in the inhibitory avoidance paradigm.
The inhibitory avoidance box is made up of two chambers, a smaller light compartment and a larger darken compartment and the test comprises of two trials. The first training trial involves placing the rat in the light compartment facing the wall and as soon as it runs to the end of the dark compartment and turns around, an electric shock of 0.6 mA is administered for 2 s and the animal is left in the dark compartment for a total of 15 s before being returned to its home cage. After a 24 h interval, the animal is then tested again and the latency in entering the dark chamber is a measure of the ability of the animal to remember the aversive stimulus. To test for the effect of the IRAP inhibitors, the rats were implanted with a chronic indwelling cannula into the lateral ventricles 1 week before the behavioural experiments. On the day of the testing, 15 min before the training trial, the rats were injected with either […] scopolamine hydrobromide dissolved in 2 ul of 0.9% saline or 0.9% saline before being placed in the inhibitory avoidance box for the training trial. Immediately after the training trial, the rats were injected with either 0.2 or 2 nmol of compound 1 (from Example 1) dissolved in 2 ul of 10% DMSO or vehicle control. […]

T1 sequence (Q9UIQ6 whole entry): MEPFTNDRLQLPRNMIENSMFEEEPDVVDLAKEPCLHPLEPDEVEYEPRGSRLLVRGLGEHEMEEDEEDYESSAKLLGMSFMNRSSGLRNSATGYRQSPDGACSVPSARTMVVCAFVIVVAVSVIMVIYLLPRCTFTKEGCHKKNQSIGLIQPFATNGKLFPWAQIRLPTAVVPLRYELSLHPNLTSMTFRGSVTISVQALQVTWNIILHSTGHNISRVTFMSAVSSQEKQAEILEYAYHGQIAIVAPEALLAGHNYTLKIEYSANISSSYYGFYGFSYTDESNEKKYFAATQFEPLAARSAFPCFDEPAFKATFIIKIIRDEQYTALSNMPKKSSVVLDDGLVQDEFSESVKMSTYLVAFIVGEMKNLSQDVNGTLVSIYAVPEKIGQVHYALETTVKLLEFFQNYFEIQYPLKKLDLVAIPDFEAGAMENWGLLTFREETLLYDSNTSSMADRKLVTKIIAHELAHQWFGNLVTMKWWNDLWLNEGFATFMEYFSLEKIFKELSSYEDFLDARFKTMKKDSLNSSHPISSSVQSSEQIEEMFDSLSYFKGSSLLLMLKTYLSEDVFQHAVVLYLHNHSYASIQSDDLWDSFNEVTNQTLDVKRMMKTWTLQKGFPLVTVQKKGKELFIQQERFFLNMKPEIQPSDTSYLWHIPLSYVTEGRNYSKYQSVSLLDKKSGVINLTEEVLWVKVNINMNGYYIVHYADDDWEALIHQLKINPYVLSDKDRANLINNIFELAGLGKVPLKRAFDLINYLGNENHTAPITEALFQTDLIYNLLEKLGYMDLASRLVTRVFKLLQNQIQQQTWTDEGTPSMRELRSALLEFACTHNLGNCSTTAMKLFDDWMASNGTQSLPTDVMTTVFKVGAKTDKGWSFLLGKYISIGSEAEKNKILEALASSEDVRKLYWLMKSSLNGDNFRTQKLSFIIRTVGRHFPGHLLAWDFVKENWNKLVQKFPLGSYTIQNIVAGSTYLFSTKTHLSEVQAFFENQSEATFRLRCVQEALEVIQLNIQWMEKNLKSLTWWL

Row | SMILES | IC50 [1] [µM] | glucose uptake (3T3-L1 cells) | latency in entering the dark chamber ([2]; 0.2 nmol icv immediately after training trial) | latency in entering the dark chamber ([2]; 2 nmol icv immediately after training trial)
1 | COc1ccc(C2C(C#N)=C(N)Oc3cc(O)ccc32)cc1 (stereo not shown) [Compound 9] | 80 | – | – | –
2 | COc1ccc(C2C(C#N)=C(N)Oc3cc(O)ccc32)cc1OC (stereo not shown) [Compound 3] | 45 | – | – | –
3 | CC[C@H](C)[C@H](NC(=O)[C@H](Cc1ccc(O)cc1)NC(=O)[C@@H](N)C(C)C)C(=O)N[C@@H](Cc1cnc[nH]1)C(=O)N1CCC[C@H]1C(=O)N[C@@H](Cc1ccccc1)C(=O)O [Ang IV] | – | enhance | – | –

Further compounds by falling IC50 [1], results first:

Row | IC50 [1] [µM] | SMILES | glucose uptake (3T3-L1 cells) | latency in entering the dark chamber ([2]; 0.2 nmol icv immediately after training trial) | latency in entering the dark chamber ([2]; 2 nmol icv immediately after training trial)
4 | 42 | CCOC(=O)C1=C(N)Oc2cc(O)ccc2C1c1cccc(Cl)c1 (stereo not shown) [Compound 2] | – | – | –
5 | 4 | CCOC(=O)C1=C(N)Oc2cc(O)ccc2C1c1cccnc1 (stereo not shown) [Compound 1] | – | increased latencies | increased latencies
